Laboratory results as given in US4374149A, “α-{[(Arylalkyl)amino]alkyl}-4-hydroxy-3-(lower-alkylsul finyl)benzenemethanols” (Sterling Drug Inc., priority 1978, dated 1983).
“And” between values parts separate entries of the source, which are not always exact repeats. Equal entries are not always repeated. Structures can show the parent of a compound that is named as a salt.

Experiments:
[1] = system: Ouabain-induced arrhythmia; test: Conversion of ouabain-induced arrhythmia in dogs; type: in vivo, mongrel dogs; parameters: key: active (A); inactive (I)
Method: (§1) The test procedures were carried out as follows.
Na-pentobarbital supplements were given i.v. as needed.
Both parameters were printed out on a Grass polygraph.

β-adrenergic = β-adrenergic blocking activity, inhibition of isoproterenol-elicited heart rate increase in pentobarbitalized dog; type: in vivo; conditions: i.v.; for Dog β-blockade AED50 (approximate intravenous dose for 50% inhibition of isoproterenol-elicited heart rate increase): pentobarbitalized dog
Method: The β-adrenergic blocking activity was determined in the pentobarbitalized dog as judged by the ability of the test compound to inhibit the elevation in heart rate elicited by a 0.5 mcg./kg. i.v. injection of isoproterenol.
^e AED50 = approximate intravenous dose required to cause 50%

Ba++-induced arrhythmia = test: Conversion of Ba++-induced arrhythmia in rabbits; type: in vivo; parameters: key: active (A); inactive (I)
Method: as §1
Adult rabbits or either sex weighing between 1.7 and 2.3 kg. were anesthetized with 30 to 35 mg./kg. Na-pentobarbital i.v. via a marginal ear vein. Monoplar ECG pin electrodes were inserted for a lead II display on a Model 5 Grass Polygraph using standard electrocardiographic procedures. A 23 ga. hypodermic needle, attached via a polyethylene catheter to a 10 cc. syringe, was inserted into the same vein as was used for anesthesia. A BaCl2.2H2 O solution in saline was then infused at a constant volume of 0.2 cc/min. from a Harvard Apparatus Model 600 infusion pump. This infusion was not stopped until termination of the experiment. In some studies barium chloride in distilled water was used without detectable differences. The standard rate of BaCl2.2H2 O infusion was established at 0.3 mg./kg./min. (1.2×10^-6 M/kg./min.), and the concentration was adjusted appropriately in each case to accommodate the weight of the rabbit.
When the desired arrhythmia was established, the test compound was introduced as a water or saline solution into the marginal ear vein of the unused ear. The volume used was between 0.5 and 2.0 cc./kg. and was injected as a bolus over approximately 30 seconds. Deviations from standard vehicle, rate of injection and total volume administered were at the discretion of the operator. The standard initial dose of an unknown compound on the first rabbit was 5×10^-5 M/kg. In general, two to three rabbits were used to determine anti-arrhythmic activity and the dose range of activity; multiple doses were administered. Once activity and dose was indicated, two additional rabbits were employed to confirm anti-arrhythmic activity against a multifocal tachycardia.

systolic blood pressure = test: Antihypertensive activity, reduction in systolic blood pressure, single oral medication, unanesthetized spontaneous hypertensive rat; type: in vivo; conditions: P.O.; for Antihypertensive activity SH Rat AHD40 (single oral dose required to induce a 40 mm. average reduction in systolic blood pressure): unanesthetized SH rat
Method: Antihypertensive activity was determined on the basis of the observed reduction in systolic blood pressure measured according to the method of H. Kersten et al., J. Lab. and Clin. Med. 32, 1090 (1947) following a single oral medication in the unanesthetized spontaneous hypertensive rat described by Okamato et al., Japan Circulation J. 27, 282 (1963).
^a AHD40 = single oral dose required to induce a 40 mm. average

7-day oral LD50 in rats = type: in vivo
[2] = system: isolated rabbit ear artery; test: Vasodilator activity, perfusion pressure in isolated rabbit ear artery
Source text: (§2) Vasodilator activity was judged on the basis of observed reduction in perfusion pressure in the hind limb vasculature of the anesthetized dog determined according to the procedure described by Jandhyala et al., European J. Pharm. 17, 357 (1972), and also on the basis of percent reduction in perfusion pressure as measured in the isolated rabbit ear artery according to the method described by De LaLande et al., Aust. J. Exp. Biol. Med. Sci. 43, 639 (1965).
^d Vasodilation is expressed as the percentage reduction in perfusion

papillary muscle = test: Cardiotonic test procedure IB, isolated cat papillary muscle; conditions: in vitro
Method: The efficacy of this compound was judged, in vitro, on the basis of percent increase in contractile force in isolated cat atria and papillary muscle and, in vitro, on the basis of percent increase in cardiac contractile force in the intact anesthetized dog. Male cats 0.8 to 1.5 kg. were anethetized with α-chloralose (80 mg./kg. i.p.). The chest was opened and the heart excised. The heart was dipped and shaken in Tyrode's solution for the removal of blood from the cavities. The right ventricle was then slit open and the small and thin (about 1 mm. in diameter and 4 to 7 mm. in length) papillary muscles were dissected out. A silver wire was attached to each of the two ends of the papillary muscle. The ventricular end was attached to a platinum electrode and mounted in a tissue bath containing Tyrode's solution described above. The silver wire on the valvular end of the muscle was attached to a force displacement transducer for the measurement of the force and rate of muscle contraction. The muscle was stimulated at a rate of 3 beats/sec. by suprathreshold rectangular pulses of 5 millisecond duration. The rest of the procedure was continued as described above.

isolated cat atria = test: Cardiotonic test procedure I, isolated cat atria; conditions: for Increase in right atrial force / Increase in right atrial rate: in vitro
Method: The efficacy of this compound was judged, in vitro, on the basis of percent increase in contractile force in isolated cat atria and papillary muscle and, in vitro, on the basis of percent increase in cardiac contractile force in the intact anesthetized dog. Male cats weighing from 0.8 to 1.5 kg. were anesthetized with α-chloralose (80 mg./kg. i.p.). The chest was opened, the heart excised and the two atria dissected. A silk suture was tied to each of two opposite sides of the right atrium. One side of the atrium was tied to a glass rod and then mounted in a 50 ml. organ bath filled with Tyrode's solution. […] The transducer was then connected to a Grass polygraph and the force and rate of atrial contraction was recorded continuously. The left atrium was treated similarly using silver wire instead of silk sutures. The silver wire also served as a stimulating electrode. Both atria were mounted in the same bath. The right atrium was beating spontaneously due to the presence of the sinoatrial node, while the left atrium was stimulated electrically at a rate of 3 beats/sec. by suprathreshold rectangular pulses of 5 millisecond duration. The Tyrode's solution bathing the atria was of the following composition (in mM): NaCl 136.87, KCl 5.36, NaH2 PO4 0.41, CaCl2 1.80, MgCl2 6H2 O 1.05, NaHCO3 11.90, glucose 5.55 and EDTA 0.04. […] The preparation was left to equilibrate for one hour before any drug was added. The bathing fluid was changed 3 to 4 times during the equilibration time. At the end of equilibration period, the drug dissolved in a vehicle or the vehicle alone was added to the tissue bath and the full response recorded. The vehicle used was Tyrode' s solution to which, if required, sufficient acid was added to cause solution of the drug. […] Generally, a dose response study of at least 3 doses was done in the same preparation.

[3] = system: cardiac contractile force; test: Cardiotonic test procedure II, intact anesthetized dog; type: in vivo, mongrel dogs; conditions: i.v. infusion 10 mcg./kg./min. over 3 hrs.
Method: The efficacy of this compound was judged, in vitro, on the basis of percent increase in contractile force in isolated cat atria and papillary muscle and, in vitro, on the basis of percent increase in cardiac contractile force in the intact anesthetized dog. The in vivo test procedure used is described as follows: Mongrel dogs of both sexes and varying in weight from 9 to 15 kg. were anesthetized with 30 mg./kg. pentobarbital sodium administered intravenously. The trachea was exposed and cannulated. The tracheal cannula was then attached to a Harvard respiratory pump using room air. The right femoral artery and vein were cannulated. […] The venous cannula was used for the intravenous administration of drugs. Pin electrodes were attached to the right forelimb and left hindlimb. The electrodes were then connected to a Grass polygraph for the continuous recording of the standard limb lead II electrocardiogram. A ventro-dorsal incision at the third inter-costal space was made, the ribs laterally retracted and the pericardium slit open to expose the myocardium. The base of the aorta was dissected and a flow probe was fitted around it. The flow probe was attached to a square wave electromagnetic flowmeter (Carolina Medical Electronics). The flowmeter was then connected to a Grass polygraph for the continuous recording of aortic blood flow. This flow was used as an index of cardiac output (actual cardiac output is aortic blood flow+coronary blood flow). Cardiac contractile force was measured by suturing a Walton-Brodie strain gauge to the wall of the right ventricle. At the end of the surgical procedure, the animal was left to rest and equilibrate for one hour with continuous recording of blood pressure, EKG, cardiac contractile force and aortic blood flow. After the equilibration period, the vehicle or the drug dissolved in the vehicle was administered by intravenous infusion (i.v. inf.), intravenous bolus (i.v. bol.) or intraduodenally (i.d.) and the response of all the parameters measured to drug administration was recorded continuously for different periods of times depending on the route of drug administration. When the route of administration was i.v. inf., the drug was administered until a peak effect was reached and infusion was then maintained for ten minutes. The above-described test systems were standardized using dopamine.

hind limb vasculature = test: Vasodilator activity, perfusion pressure in hind limb vasculature of anesthetized dog; type: in vivo; conditions: Canis lupus familiaris, intraarterial, anesthetized dog hind limb; read-out: Vasodilator activity Dog-Leg Perfusion AED50 (approximate intraarterial dose for 50 reduction in perfusion pressure)
Source text: as §2
^c AED50 = approximate intraarterial dose required to cause a 50

blood pressure = test: Antihypertensive activity, sustained lowering of blood pressure, repeated oral medication, unanesthetized trained renal hypertensive dog; type: in vivo; conditions: tid.
Source text: Antihypertensive activity was also judged on the basis of sustained reduction of blood pressure observed in the unanesthetized trained renal hypertensive dog following repeated oral medication according to the procedure described by Lape et al., Arch.
^b MED10 = minimum repeated oral daily dose required to effect a

Q: With `CC(CCc1ccc(O)cc1)NCCc1ccc(O)c([S+](C)[O-])c1` (single isomer, unassigned) [Example 30E, 4-<2-{[3-(4-hydroxy-phenyl)-1-mehylpropyl]amino}ethyl>-2-(methylsulfinyl)phenol hydrochloride] as the compound, how does the “Conversion of Ouabain-induced Arrhythmia” value ([1]; 1 × 10^-5 M/kg.) read?
A: A

Q: And the “Dog β-blockade AED50 (approximate intravenous dose for 50% inhibition of isoproterenol-elicited heart rate increase)” value (β-adrenergic)?
A: ca. 0.50 mg./kg.

Q: What about the “Conversion of Ba++-induced Arrhythmia” value (Ba++-induced arrhythmia; 2 × 10^-5 M/kg.) of the same compound?
A: A

Q: What about the “Actual reduction in blood pressure observed at the indicated dose” value (systolic blood pressure; 50 mg./kg.) of the same compound?
A: -3 mm. Hg

Q: And the “Antihypertensive activity SH Rat AHD40 (single oral dose required to induce a 40 mm. average reduction in systolic blood pressure)” value (systolic blood pressure)?
A: > 50 mg/kg

Q: Which results are given for `COc1ccc(CCC(C)NCC(O)c2ccc(O)c([S+](C)[O-])c2)cc1` (stereo not drawn) [Example 5E, 4-hydroxy-α-<{[3-(4-methoxyphenyl)-1-methylpropyl]amino}methyl>-3-(methylsulfinyl)benzenemethanol acetate salt]?
A: Body weight and gross tissue changes (7-day oral LD50 in rats; animals sacrificed 7 days post-medication): No changes in body weight and no gross tissue changes; 7-day oral LD50 (7-day oral LD50 in rats; oral, rats, two separate batches, acetate salt, 10080 min): 1940 mg/kg; LD50 at 168 h (7-day oral LD50 in rats; rat, in vivo, po, rats, two separate batches): 1850 mg/kg

Q: Which results are given for `COc1ccc(CCC(C)NCC(O)c2ccc(O)c([S+](C)[O-])c2)cc1` (stereo not drawn) [Example 5H, 4-hydroxy-α-<{[3-(4-methoxyphenyl)-1-methylpropyl]amino}methyl>-3-(methylsulfinyl)benzenemethanol hydrochloride]?
A: Conversion of Ouabain-induced Arrhythmia ([1]; 5 × 10^-6 M/kg.): A; Rabbit Ear Artery vasodilation (percentage reduction in perfusion pressure from control level) ([2]; 1 × 10^-4 M, 100 µM, hydrochloride): 64%; Decrease in papillary muscle force (papillary muscle; 1 mg./ml.): 14%; Decrease in papillary muscle force (papillary muscle; 10 mcg./ml.): 12%; Increase in right atrial force (isolated cat atria; 1 mg./ml.): 52%; Increase in right atrial rate (isolated cat atria; 1 mg./ml.): 62%; Increase in right atrial force (isolated cat atria; 10 mcg./ml.): 46%; Increase in right atrial rate (isolated cat atria; 10 mcg./ml.): 53%; Cardiotonic activity (in words) (isolated cat atria; one or more of the cardiotonic test procedures): useful cardiotonic activity; Conversion of Ba++-induced Arrhythmia (Ba++-induced arrhythmia; 1 × 10^-5 M/kg.): A; Change in heart rate ([3]; 2 of 3 dogs): no significant change in heart rate; Maximum increase in cardiac contractile force ([3]; 2 of 3 dogs, I, hydrochloride): 25% and 42%; Decrease in contractile force ([3]; remaining dog): 30%; Decrease in heart rate ([3]; remaining dog): 33%

Q: Which results are given for `CC(=O)O.C[S+]([O-])c1cc(C(O)CNC(C)(C)CCc2ccccc2)ccc1O` (stereo not drawn) [Example 17C, α-{[(1,1-dimethyl-3-phenylpropyl)amino]methyl}-4-hydroxy-3-(methylsulfinyl)benzenemethanol acetate salt]?
A: ED50 (hind limb vasculature): 0.5 mg/kg; Conversion of Ouabain-induced Arrhythmia ([1]; 5 × 10^-6 M/kg.): A; Dog β-blockade AED50 (approximate intravenous dose for 50% inhibition of isoproterenol-elicited heart rate increase) (β-adrenergic): 0.05 mg/kg; Rabbit Ear Artery vasodilation (percentage reduction in perfusion pressure from control level) ([2]; 5 × 10^-5 M, 50 µM): 50%; Conversion of Ba++-induced Arrhythmia (Ba++-induced arrhythmia; 2.5 × 10^-6 M/kg.): A; Actual reduction in blood pressure observed at the indicated dose (systolic blood pressure; 20 mg./kg.): -37 mm. Hg; Antihypertensive activity SH Rat AHD40 (single oral dose required to induce a 40 mm. average reduction in systolic blood pressure) (systolic blood pressure): > 20.0 mg/kg

Q: Which results are given for `CC(=O)O.CC(CCc1ccccc1)NCC(O)c1ccc(O)c([S+](C)[O-])c1` (stereo not drawn) [Example 19C, 4-hydroxy-α-{[(1-methyl-3-phenylpropyl)amino]methyl}-3-(methylsulfinyl)benzenemethanol acetate salt]?
A: ED50 (hind limb vasculature): 0.5 mg/kg; Conversion of Ouabain-induced Arrhythmia ([1]; 5 × 10^-5 M/kg.): A; Actual percentage inhibition of heart rate increase above control level observed at the indicated dose (β-adrenergic; 0.025 mg./kg.): 67%; Dog β-blockade AED50 (approximate intravenous dose for 50% inhibition of isoproterenol-elicited heart rate increase) (β-adrenergic): < 0.025 mg/kg; Rabbit Ear Artery vasodilation (percentage reduction in perfusion pressure from control level) ([2]; 5 × 10^-5 M, 50 µM): 50%; Conversion of Ba++-induced Arrhythmia (Ba++-induced arrhythmia; 2.5 × 10^-6 M/kg.): A; Antihypertensive activity SH Rat AHD40 (single oral dose required to induce a 40 mm. average reduction in systolic blood pressure) (systolic blood pressure): 20.0 mg/kg; Renal Hypertensive Dog MED10 (minimum repeated oral daily dose for sustained lowering of blood pressure of 10% or greater) (blood pressure): > 0.125 mg/kg; Actual percentage reduction in blood pressure observed at the indicated dose (blood pressure; 0.125 mg./kg.): 0%

Q: Which “Conversion of Ouabain-induced Arrhythmia” value ([1]; 2 × 10^-5 M/kg.) does the source give for `COc1ccc(CCC(C)(C)NCCc2ccc(O)c([S+](C)[O-])c2)cc1` (centres unmarked) [Example 34C, 4-<2-{[3-(4-methoxyphenyl)-1,1-dimethylpropyl]amino}ethyl>-2-(methylsulfinyl)phenol hydrochloride] here?
A: A

Q: What about the “Actual percentage inhibition of heart rate increase above control level observed at the indicated dose” value (β-adrenergic; 1.0 mg./kg.) of the same compound?
A: 40%

Q: What about the “Dog β-blockade AED50 (approximate intravenous dose for 50% inhibition of isoproterenol-elicited heart rate increase)” value (β-adrenergic) of the same compound?
A: > 1.0 mg/kg

Q: And the “Conversion of Ba++-induced Arrhythmia” value (Ba++-induced arrhythmia; 2.5 × 10^-6 M/kg.)?
A: A

Q: What about the “Actual reduction in blood pressure observed at the indicated dose” value (systolic blood pressure; 50 mg./kg.) of the same compound?
A: -8 mm. Hg

Q: And the “Antihypertensive activity SH Rat AHD40 (single oral dose required to induce a 40 mm. average reduction in systolic blood pressure)” value (systolic blood pressure)?
A: > 50 mg/kg
